tested on: MDA-231 cancer cells; assay: Inhibition of proliferation assay, cell confluence (IncuCyte live cell imaging); format: cell-based; conditions: MDA-231 cells, concentration 10 uM; relative confluence normalised to time zero, images every 3 h over 4-5 d
Source text: Inhibition of Proliferation Assay Cell Confluence The confluence value is a surrogate for cell proliferation and growth. The value is expressed as a percent confluence, which represents the fraction of culture dish-surface that is occupied by cells. As the number of cells in the dish increases over time due to proliferation, so will their coverage of that surface increase. Expansion of the cell population on the cell culture-dish surface and confluence have mostly a linear relationship until the cells on the plate surface begin to reach saturation or maximum density. Confluence is determined based on image analysis. Image based software can identify objects in the image field base on changes to pixel density in a grey scale image. The software can then assign a mask to those pixels within the object. Objects can be ‘gated’ out based on size and shape. To determine cell confluence, images of cells are first masked as objects. The surface area of the image that is masked is measured and compared to the total surface area of the culture dish surface to obtain a percent confluence. MDA-231 cancer cells were obtained from ATCC. Cells were cultured in Dulbecco's Modified Eagle Medium (DMEM) supplemented with 10% Fetal Bovine Serum (FBS), 2 mM Glutamax, 1 mM Non Essential Amino Acid (NEAA) solution and 1 mM sodium pyruvate. Compounds were dissolved in DMSO at 10 mM and diluted in cellular medium and tested at 10 μM (micromolar). Final DMSO concentrations were <0.1%. Images were acquired with an IncuCyte Live Cell Imaging microscopy (Essen Bioscience) at every 3 h under cell culture conditions with 10× objective over 4-5 d. Cell confluence was calculated from one field of view per well using the IncuCyte in-built algorithm. Relative confluence values were obtained by normalising each value to the time zero value in each sample.

Which “% Confluence” value does the source give for `CC[C@H]1OC(=O)[C@H](C)[C@@H](O[C@H]2C[C@@](C)(OC)[C@@H](O)[C@H](C)O2)[C@H](C)[C@@H](O[C@@H]2O[C@H](C)C[C@H](N(C)C)[C@H]2O)[C@](C)(O)C[C@@H](C)CN(CCCCCCCCCC[PH](c2ccccc2)(c2ccccc2)c2ccccc2)[C@H](C)[C@@H](O)[C@]1(C)O` [Example 14, {10-[(2R,3S,4R,5R,8R,10R,11R,12S,13S,14R)-11-{[(2S,3R,4S,6R)-4-(dimethylamino)-3-hydroxy-6-methyloxan-2-yl]oxy}-2-ethyl-3,4,10-trihydroxy-13-{[(2R,4R,5S,6S)-5-hydroxy-4-methoxy-4,6-dimethyloxan-2-yl]oxy}-3,5,8,10,12,14-hexamethyl-15-oxo-1-oxa-6-azacyclopentadecan-6-yl]decyl}triphenylphosphonium iodide] here?
The value was 10.1%.

How did the “% Confluence” value turn out when `CC[C@H]1OC(=O)[C@H](C)[C@@H](O[C@H]2C[C@@](C)(OC)[C@@H](O)[C@H](C)O2)[C@H](C)[C@@H](O[C@@H]2O[C@H](C)C[C@H](N(C)C)[C@H]2O)[C@](C)(O)C[C@@H](C)CN(CCCCCCCCC[PH](c2ccccc2)(c2ccccc2)c2ccccc2)[C@H](C)[C@@H](O)[C@]1(C)O` [Example 15, {9-[(2R,3S,4R,5R,8R,10R,11R,12S,13S,14R)-11-{[(2S,3R,4S,6R)-4-(dimethylamino)-3-hydroxy-6-methyloxan-2-yl]oxy}-2-ethyl-3,4,10-trihydroxy-13-{[(2R,4R,5S,6S)-5-hydroxy-4-methoxy-4,6-dimethyloxan-2-yl]oxy}-3,5,8,10,12,14-hexamethyl-15-oxo-1-oxa-6-azacyclopentadecan-6-yl]nonyl}triphenylphosphonium iodide] was run?
The value was 10.7%.

How did the “% Confluence” value turn out when `CC[C@H]1OC(=O)[C@H](C)[C@@H](O)[C@H](C)[C@@H](O)[C@](C)(O)C[C@@H](C)CN(C(=O)CCCCCCCCCCCCC[P+](c2ccccc2)(c2ccccc2)c2ccccc2)[C@H](C)[C@@H](O)[C@]1(C)O` [Example 16, {14-[(2R,3S,4R,5R,8R,10R,11R,12S,13S,14R)-2-ethyl-3,4,10,11,13-pentahydroxy-3,5,8,10,12,14-hexamethyl-15-oxo-1-oxa-6-azacyclopentadecan-6-yl]-14-oxotetradecyl}triphenylphosphonium hexafluorophosphate(V)] was run?
Its value is 9.9%.

How did the “% Confluence” value turn out when `CC[C@H]1OC(=O)[C@H](C)[C@@H](O[C@H]2C[C@@](C)(OC)[C@@H](O)[C@H](C)O2)[C@H](C)[C@@H](O[C@@H]2O[C@H](C)C[C@H](N(C)C)[C@H]2O)[C@](C)(O)C[C@@H](C)CN(C)[C@H](C)[C@@H](OC(=O)NCCCCCC[P+](c2ccccc2)(c2ccccc2)c2ccccc2)[C@]1(C)O.[Br-]` [Example 17, (2R,3R,4R,5R,8R,10R,11R,12S,13S,14R)-11-{[(2S,3R,4S,6R)-4-(dimethylamino)-3-hydroxy-6-methyloxan-2-yl]oxy}-2-ethyl-3,10-dihydroxy-13-{[(2R,4R,5S,6S)-5-hydroxy-4-methoxy-4,6-dimethyloxan-2-yl]oxy}-3,5,6,8,10,12,14-heptamethyl-15-oxo-1-oxa-6-azacyclopentadecan-4-yl N-[6-(triphenylphosphoniumyl)hexyl]carbamate bromide] was run?
Its value is 82.6%.

For `CC[C@H]1OC(=O)[C@H](C)[C@@H](O[C@H]2C[C@@](C)(OC)[C@@H](O)[C@H](C)O2)[C@H](C)[C@@H](O[C@@H]2O[C@H](C)C[C@H](N(C)C)[C@H]2OC(C)=O)[C@](C)(O)C[C@@H](C)CN(C)[C@H](C)[C@@H](OC(=O)NCCCCCCCCCC[P+](c2ccccc2)(c2ccccc2)c2ccccc2)[C@]1(C)O.[Br-]` [Example 18, (2S,3R,4S,6R)-4-(dimethylamino)-2-{[(2R,3R,4R,5R,8R,10R,11R,12S,13S,14R)-2-ethyl-3,10-dihydroxy-13-{[(2R,4R,5S,6S)-5-hydroxy-4-methoxy-4,6-dimethyloxan-2-yl]oxy}-3,5,6,8,10,12,14-heptamethyl-15-oxo-4-({[10-(triphenylphosphosphoniumyl)decyl]carbamoyl}oxy)-1-oxa-6-azacyclopentadecan-11-yl]oxy}-6-methyloxan-3-yl acetate bromide], which “% Confluence” value is on record?
Its value is 9.6%.

Which “% Confluence” value does the source give for `CC[C@H]1OC(=O)[C@H](C)[C@@H](O[C@H]2C[C@@](C)(OC)[C@@H](O)[C@H](C)O2)[C@H](C)[C@@H](O[C@@H]2O[C@H](C)C[C@H](N(C)C)[C@H]2O)[C@](C)(O)C[C@@H](C)CN(C)[C@H](C)[C@@H](OC(=O)NCCCCCCCCCC[P+](c2ccccc2)(c2ccccc2)c2ccccc2)[C@]1(C)O.[Br-]` [Example 19, (2R,3R,4R,5R,8R,10R,11R,12S,13S,14R)-11-{[(2S,3R,4S,6R)-4-(dimethylamino)-3-hydroxy-6-methyloxan-2-yl]oxy}-2-ethyl-3,10-dihydroxy-13-{[(2R,4R,5S,6S)-5-hydroxy-4-methoxy-4,6-dimethyloxan-2-yl]oxy}-3,5,6,8,10,12,14-heptamethyl-15-oxo-1-oxa-6-azacyclopentadecan-4-yl N-[10-(triphenylphosphoniumyl)decyl]carbamate bromide] here?
The value was 9.7%.

For `CC[C@H]1OC(=O)[C@H](C)[C@@H](O[C@H]2C[C@@](C)(OC)[C@@H](O)[C@H](C)O2)[C@H](C)[C@@H](O[C@@H]2O[C@H](C)C[C@H](N(C)C)[C@H]2O)[C@](C)(O)C[C@@H](C)CN(C)[C@H](C)[C@@H](OC(=O)NCCCCCCCC[P+](c2ccccc2)(c2ccccc2)c2ccccc2)[C@]1(C)O.[Br-]` [Example 20, (2R,3R,4R,5R,8R,10R,11R,12S,13S,14R)-11-{[(2S,3R,4S,6R)-4-(dimethylamino)-3-hydroxy-6-methyloxan-2-yl]oxy}-2-ethyl-3,10-dihydroxy-13-{[(2R,4R,5S,6S)-5-hydroxy-4-methoxy-4,6-dimethyloxan-2-yl]oxy}-3,5,6,8,10,12,14-heptamethyl-15-oxo-1-oxa-6-azacyclopentadecan-4-yl N-[8-(triphenylphosphoniumyl)octyl]carbamate bromide], which “% Confluence” value is on record?
Its value is 13.5%.

For `CC[C@H]1OC(=O)[C@H](C)[C@@H](O)[C@H](C)[C@@H](O[C@@H]2O[C@H](C)C[C@H](N(C)C)[C@H]2O)[C@](C)(O)C[C@@H](C)CN(C(=O)CCCCCCCCCCCCC[P+](c2ccccc2)(c2ccccc2)c2ccccc2)[C@H](C)[C@@H](O)[C@]1(C)O` [Example 21, {14-[(2R,3S,4R,5R,8R,10R,11R,12S,13S,14R)-11-{[(2S,3R,4S,6R)-4-(dimethylamino)-3-hydroxy-6-methyloxan-2-yl]oxy}-2-ethyl-3,4,10,13-tetrahydroxy-3,5,8,10,12,14-hexamethyl-15-oxo-1-oxa-6-azacyclopentadecan-6-yl]-14-oxotetradecyl}triphenylphosphonium hexafluorophosphate(V)], which “% Confluence” value is on record?
Its value is 8%.

Which “% Confluence” value does the source give for `CC[C@H]1OC(=O)[C@H](C)[C@@H](O[C@H]2C[C@@](C)(OC)[C@@H](O)[C@H](C)O2)[C@H](C)[C@@H](O[C@@H]2O[C@H](C)C[C@H](N(C)C)[C@H]2O)[C@](C)(O)C[C@@H](C)CN(CCCCCC(=O)N(C)CC[P+](c2ccccc2)(c2ccccc2)c2ccccc2)[C@H](C)[C@@H](O)[C@]1(C)O.[Br-]` [Example 22] here?
Its value is 102.7%.

With `CC[C@H]1OC(=O)[C@H](C)[C@@H](O[C@H]2C[C@@](C)(OC)[C@@H](O)[C@H](C)O2)[C@H](C)[C@@H](O[C@@H]2O[C@H](C)C[C@H](N(C)C)[C@H]2O)[C@](C)(O)C[C@@H](C)CN(C(=O)CCOCCOCC[P+](c2ccccc2)(c2ccccc2)c2ccccc2)[C@H](C)[C@@H](O)[C@]1(C)O.[Br-]` [Example 23, [2-(2-{3-[(2R,3S,4R,5R,8R,10R,11R,12S,13S,14R)-11-{[(2S,3R,4S,6R)-4-(dimethylamino)-3-hydroxy-6-methyloxan-2-yl]oxy}-2-ethyl-3,4,10-trihydroxy-13-{[(2R,4R,5S,6S)-5-hydroxy-4-methoxy-4,6-dimethyloxan-2-yl]oxy}-3,5,6,8,10,12,14-hexamethyl-15-oxo-1-oxa-6-azacyclopentadecan-6-yl]-3-oxopropoxy}ethoxy)ethyl]triphenylphosphonium bromide] as the compound, how does the “% Confluence” value read?
Its value is 118%.

`CC[C@H]1OC(=O)[C@H](C)[C@@H](O[C@H]2C[C@@](C)(OC)[C@@H](O)[C@H](C)O2)[C@H](C)[C@@H](O[C@@H]2O[C@H](C)C[C@H](N(C)C)[C@H]2O)[C@](C)(O)C[C@@H](C)CN(C(=O)CCCCN(C)CC[P+](c2ccccc2)(c2ccccc2)c2ccccc2)[C@H](C)[C@@H](O)[C@]1(C)O.[Br-]` [Example 24, [2-({5-[(2R,3S,4R,5R,8R,10R,11R,12S,13S,14R)-11-{[(2S,3R,4S,6R)-4-(dimethylamino)-3-hydroxy-6-methyloxan-2-yl]oxy}-2-ethyl-3,4,10-trihydroxy-13-{[(2R,4R,5S,6S)-5-hydroxy-4-methoxy-4,6-dimethyloxan-2-yl]oxy}-3,5,6,8,10,12,14-hexamethyl-15-oxo-1-oxa-6-azacyclopentadecan-6-yl]-5-oxopentyl}(methyl)amino)ethyl]triphenylphosphonium bromide] was tested. Which “% Confluence” value did it give?
The value was 49.1%.
